Data published in patent US12324802B2, “Modulators of cystic fibrosis transmembrane conductance regulator” (Vertex Pharmaceuticals Incorporated, priority 2020, dated 2025).
pEC50: −log10 of the molar value. Read-outs that look alike come from different tables or passages of the source. Values belong to the compound of their own block, whether it stands above or below them.

Experiments:
[1] = target: T1, CFTR (F508del/MF-HBE cells) (Homo sapiens, UniProt P13569, DEL508-508); assay: Ussing chamber assay of CFTR-mediated short-circuit currents (identification of potentiator compounds); type: cell-based; conditions: CFTR-mediated ISC in F508del/MF-HBE cells; incubated 18-24 hours at 37° C. with 10 μM (14S)-8-[3-(2-{dispiro[2.0.2.1]heptan-7-yl}ethoxy)-1H-pyrazol-1-yl]-...-2,2,4-trione, 20% human serum
T1 construct: human bronchial epithelial (HBE) cells derived from CF subjects heterozygous for F508del and a minimal function CFTR mutation; endogenous in cells; host or cells: primary human bronchial epithelial cells from CF subjects (F508del/MF genotype)
In short: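 Short-circuit current was voltage-clamped at 0 mV and 37 °C in pH 7.4 HEPES buffers, with amiloride (30 μM) on the apical side. The CFTR component was defined as forskolin (20 μM) peak minus residual current after BPO/GlyH-101/CFTRinh-172 at 20 μM each. Cells had been pretreated 18–24 h with potentiator concentrations and 10 μM corrector in 20% human serum, kept throughout the measurement.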

T1 sequence (P13569 with tags, fused parts or gaps DEL508-508): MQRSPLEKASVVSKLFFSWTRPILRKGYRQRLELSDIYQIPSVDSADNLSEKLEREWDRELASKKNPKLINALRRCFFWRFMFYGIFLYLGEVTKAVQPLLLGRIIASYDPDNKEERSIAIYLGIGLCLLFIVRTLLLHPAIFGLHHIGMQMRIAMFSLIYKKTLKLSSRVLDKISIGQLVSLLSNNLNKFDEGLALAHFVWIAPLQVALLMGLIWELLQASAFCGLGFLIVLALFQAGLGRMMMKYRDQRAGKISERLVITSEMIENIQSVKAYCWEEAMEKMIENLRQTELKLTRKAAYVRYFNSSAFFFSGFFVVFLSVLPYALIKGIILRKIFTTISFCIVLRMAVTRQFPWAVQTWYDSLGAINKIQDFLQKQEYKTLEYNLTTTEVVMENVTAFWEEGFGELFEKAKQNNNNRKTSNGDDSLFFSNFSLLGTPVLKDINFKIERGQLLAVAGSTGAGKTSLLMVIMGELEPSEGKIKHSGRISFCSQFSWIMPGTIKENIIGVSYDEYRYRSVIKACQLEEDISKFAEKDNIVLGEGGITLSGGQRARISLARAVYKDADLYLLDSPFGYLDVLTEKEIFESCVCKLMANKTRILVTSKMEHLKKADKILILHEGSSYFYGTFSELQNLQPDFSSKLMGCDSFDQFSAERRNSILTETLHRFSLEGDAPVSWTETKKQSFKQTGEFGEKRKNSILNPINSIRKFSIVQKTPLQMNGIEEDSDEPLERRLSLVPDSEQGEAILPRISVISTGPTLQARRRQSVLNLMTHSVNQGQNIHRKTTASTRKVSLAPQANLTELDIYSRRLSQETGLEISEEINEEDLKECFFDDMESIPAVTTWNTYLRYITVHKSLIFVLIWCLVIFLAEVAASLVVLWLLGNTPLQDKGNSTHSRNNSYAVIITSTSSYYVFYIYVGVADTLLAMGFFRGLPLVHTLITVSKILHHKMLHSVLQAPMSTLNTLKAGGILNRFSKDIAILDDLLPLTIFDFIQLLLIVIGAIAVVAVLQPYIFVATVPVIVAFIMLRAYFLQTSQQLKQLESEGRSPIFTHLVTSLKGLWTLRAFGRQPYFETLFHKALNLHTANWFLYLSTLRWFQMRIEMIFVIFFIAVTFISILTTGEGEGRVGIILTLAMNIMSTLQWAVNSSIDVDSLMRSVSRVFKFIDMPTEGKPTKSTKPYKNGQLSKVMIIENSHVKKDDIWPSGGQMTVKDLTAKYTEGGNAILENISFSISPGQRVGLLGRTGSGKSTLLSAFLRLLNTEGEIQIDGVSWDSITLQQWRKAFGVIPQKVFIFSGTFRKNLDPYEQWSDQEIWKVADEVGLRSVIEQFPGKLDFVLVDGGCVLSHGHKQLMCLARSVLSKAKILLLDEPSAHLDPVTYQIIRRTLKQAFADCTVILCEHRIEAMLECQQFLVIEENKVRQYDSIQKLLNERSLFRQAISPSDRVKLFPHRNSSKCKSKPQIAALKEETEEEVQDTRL

Structure (SMILES): CC(C)(C)OC(=O)Nc1cc(C(F)(F)F)c2nc1-c1nnc(o1)C(OCc1ccccc1)(C(F)(F)F)CCCC(=O)N1CCN2CC1 (stereo not shown)
ring closure, isolated yield (from CC(C)(C)OC(=O)Nc1cc(C(F)(F)F)c(N2CCNCC2)nc1-c1nnc(C(CCCC(=O)O)(OCc2ccccc2)C(F)(F)F)o1, amide bond, 15-membered ring, HATU/DIEA, DMF, 14.5 mM, 25.0 °C, 0.083 h): 80%

Structure (SMILES): CC(C)(C)OC(=O)Nc1cc(C(F)(F)F)c2nc1-c1nnc(o1)C(OCc1ccccc1)(C(F)(F)F)CCCCC1CCN2C1 (stereo not shown)
ring closure, isolated yield (from CC(C)(C)OC(=O)Nc1cc(C(F)(F)F)c(Br)nc1-c1nnc(C(CCCCC2CCNC2)(OCc2ccccc2)C(F)(F)F)o1, snar bond, 14-membered ring, DIEA, MeCN, 6.33 mM, 80.0 °C, 16.0 h): 79%

Structure (SMILES): CC1(C)CCCC(OCc2ccccc2)(C(F)(F)F)C(=O)NNC(=O)c2nc(c(C(F)(F)F)cc2[N+](=O)[O-])NCC1 (stereo not shown)
ring closure, isolated yield (from CC(C)(CCCC(OCc1ccccc1)(C(=O)O)C(F)(F)F)CCNc1nc(C(=O)O)c([N+](=O)[O-])cc1C(F)(F)F, crosslinker bond, 15-membered ring, hydrazine/BOP/HOAt/DIEA, DMF, 2.1 mM, 30.0 °C): 84%

Structure (SMILES): CC1(C)CCCOCC(OCc2ccccc2)(C(F)(F)F)C2=NN=C(O2)c2nc(c(C(F)(F)F)cc2[N+](=O)[O-])N1 (stereo not shown)
ring closure, isolated yield (from Cc1ccc(S(=O)(=O)Oc2nc(-c3nnc(C(COCCCC(C)(C)N)(OCc4ccccc4)C(F)(F)F)o3)c([N+](=O)[O-])cc2C(F)(F)F)cc1, snar bond, 14-membered ring, DIEA, DCM, 1.47 mM): 45%

Structure (SMILES): CC1(C)COCCCC(OCc2ccccc2)(C(F)(F)F)C(=O)NNC(=O)c2nc(c(C(F)(F)F)cc2[N+](=O)[O-])N1 (stereo not shown)
ring closure, isolated yield (from CC(C)(COCCCC(OCc1ccccc1)(C(=O)O)C(F)(F)F)Nc1nc(C(=O)NN)c([N+](=O)[O-])cc1C(F)(F)F, amide bond, 15-membered ring, BOP/HOBt/DIEA, DMF, 2.78 mM, 25.0 °C, 24.0 h): 28%

Structure (SMILES): O=[N+]([O-])c1cc(C(F)(F)F)c2nc1-c1nnc(o1)C(OCc1ccccc1)(C(F)(F)F)CCC=CCC(CO)N2 (stereo not shown)
ring closure, isolated yield (from C=CCCC(OCc1ccccc1)(c1nnc(-c2nc(NC(CO)CC=C)c(C(F)(F)F)cc2[N+](=O)[O-])o1)C(F)(F)F, rcm bond, 14-membered ring, Zhan-1B, DCE, 3.01 mM, 70.0 °C, 2.0 h): 32%

Structure (SMILES): O=[N+]([O-])c1cc(C(F)(F)F)c2nc1-c1nnc(o1)[C@@](OCc1ccccc1)(C(F)(F)F)CC=CCCC(C1CC1)N2 (stereo partly shown)
ring closure, isolated yield (from C=CCCC(Nc1nc(-c2nnc([C@@](CC=C)(OCc3ccccc3)C(F)(F)F)o2)c([N+](=O)[O-])cc1C(F)(F)F)C1CC1, rcm bond, 14-membered ring, Zhan catalyst-1B, DCE, 2.49 mM, 66.0 °C, 1.6 h): 76%

Structure (SMILES): CC(C)(C)OC(=O)Nc1cc(C(F)(F)F)c2nc1-c1nnc(o1)C(OCc1ccccc1)(C(F)(F)F)CCC=CCCC1CCCN21 (mixture of isomers)
ring closure, isolated yield (from C=CCCC1CCCN1c1nc(-c2nnc(C(CCC=C)(OCc3ccccc3)C(F)(F)F)o2)c(NC(=O)OC(C)(C)C)cc1C(F)(F)F, rcm bond, 15-membered ring, Zhan-1B (24 mol%), DCE, 4.89 mM, 70.0 °C, 16.0 h): 53%

Structure (SMILES): CC1(C)CC2CC=Cc3ccc(F)c(c3)C(O)(C(F)(F)F)C3=NN=C(O3)c3nc(c(C(F)(F)F)cc3N(C(=O)OC(C)(C)C)C(=O)OC(C)(C)C)N2C1 (mixture of isomers)
ring closure, isolated yield (from C=CCC1CC(C)(C)CN1c1nc(-c2nnc(C(O)(c3cc(I)ccc3F)C(F)(F)F)o2)c(N(C(=O)OC(C)(C)C)C(=O)OC(C)(C)C)cc1C(F)(F)F, cc_pd bond, 15-membered ring, Pd(OAc)2/P(o-tol)3/Et3N, MeCN, 7.06 mM, 80.0 °C, 22.0 h): 58%

Structure (SMILES): CC1(C)CC=CCC(OCc2ccccc2)(C(F)(F)F)C2=NN=C(O2)c2nc(c(C(F)(F)F)cc2[N+](=O)[O-])NC1 (mixture of isomers)
ring closure, isolated yield (from C=CCC(C)(C)CNc1nc(-c2nnc(C(CC=C)(OCc3ccccc3)C(F)(F)F)o2)c([N+](=O)[O-])cc1C(F)(F)F, rcm bond, 14-membered ring, Zhan catalyst-1B, DCE, 2.0 mM, 80.0 °C, 16.0 h): 14%

Structure (SMILES): CC1(C)CCC=CC(F)(F)C(OCc2ccccc2)C2=NN=C(O2)c2nc(c(C(F)(F)F)cc2[N+](=O)[O-])N1 (mixture of isomers)
ring closure, isolated yield (from C=CCCC(C)(C)Nc1nc(-c2nnc(C(OCc3ccccc3)C(F)(F)C=C)o2)c([N+](=O)[O-])cc1C(F)(F)F, rcm bond, 14-membered ring, Grubbs II, 1,2-dichloroethane, 1.85 mM, 75.0 °C, 1.67 h): 40%

Structure (SMILES): CC1(C)CCC=CC[C@@](OCc2ccccc2)(C(F)(F)F)C2=NN=C(O2)c2nc(c(C(F)(F)F)cc2N(C(=O)OC(C)(C)C)C(=O)OC(C)(C)C)N1 (mixture of isomers)
ring closure, isolated yield (from C=CCCC(C)(C)Nc1nc(-c2nnc([C@](CC=C)(OCc3ccccc3)C(F)(F)F)o2)c(N(C(=O)OC(C)(C)C)C(=O)OC(C)(C)C)cc1C(F)(F)F, rcm bond, 14-membered ring, Zhan catalyst-1B, toluene, 8.66 mM, 70.0 °C, 3.0 h): 62%

Structure (SMILES): CC1(C)Nc2nc(c([N+](=O)[O-])cc2C(F)(F)F)C2=NN=C(O2)[C@@](OCc2ccccc2)(C(F)(F)F)CC=CCC1OCc1ccccc1 (mixture of isomers)
ring closure, isolated yield (from C=CCC(OCc1ccccc1)C(C)(C)Nc1nc(-c2nnc([C@@](CC=C)(OCc3ccccc3)C(F)(F)F)o2)c([N+](=O)[O-])cc1C(F)(F)F, rcm bond, 14-membered ring, Zhan catalyst-1B, DCE, 2.36 mM, 70.0 °C, 18.0 h): 76%

pEC50 [1]: < 6.00
Structure (SMILES): Nc1cc(C(F)(F)F)c2nc1-c1nnc(o1)[C@@](O)(C(F)(F)F)CCCCCC(C(=O)N1CCCC1)N2 (stereo partly drawn) [Compound 154, [(6R)-17-amino-6-hydroxy-6,15-bis(trifluoromethyl)-19-oxa-3,4,13,18-tetrazatricyclo[12.3.1.12,5]nonadeca-1(18),2,4,14,16-pentaen-12-yl]-pyrrolidin-1-yl-methanone]

pEC50 [1]: > 6.30
Structure (SMILES): CC1(C)CCCCC[C@](O)(C(F)(F)F)C2=NN=C(O2)c2nc(c(C(F)(F)F)cc2N)N1 [Compound 163, (6R)-17-amino-12,12-dimethyl-6,15-bis(trifluoromethyl)-19-oxa-3,4,13,18-tetrazatricyclo[12.3.1.12,5]nonadeca-1(18),2,4,14,16-pentaen-6-ol]

pEC50 [1]: < 6.00
Structure (SMILES): CC1(C)CCCCC[C@@](O)(C(F)(F)F)C2=NN=C(O2)c2nc(c(C(F)(F)F)cc2N)N1 [Compound 165, (6S)-17-Amino-12,12-dimethyl-6,15-bis(trifluoromethyl)-19-oxa-3,4,13,18-tetrazatricyclo[12.3.1.12,5]nonadeca-1(18),2,4,14,16-pentaen-6-ol]

pEC50 [1]: > 6.30
Structure (SMILES): Nc1cc(C(F)(F)F)c2nc1-c1nnc(o1)[C@@](O)(C(F)(F)F)CCCCCC(c1ccccn1)N2 (stereo partly drawn) [Compound 166, (6R)-17-amino-12-(2-pyridyl)-6,15-bis(trifluoromethyl)-19-oxa-3,4,13,18-tetrazatricyclo[12.3.1.12,5]nonadeca-1(18),2,4,14,16-pentaen-6-ol]

pEC50 [1]: > 6.30
Structure (SMILES): Nc1cc(C(F)(F)F)c2nc1-c1nnc(o1)[C@@](O)(C(F)(F)F)CCCCCC1(CCC1)N2 [Compound 173, (6R)-17-amino-6,15-bis(trifluoromethyl)spiro[19-oxa-3,4,13,18-tetrazatricyclo[12.3.1.12,5]nonadeca-1(18),2,4,14,16-pentaene-12,1′-cyclobutane]-6-ol]

pEC50 [1]: > 6.30
Structure (SMILES): [2H]C([2H])([2H])C1(C([2H])([2H])[2H])CCCCC[C@](O)(C(F)(F)F)C2=NN=C(O2)c2nc(c(C(F)(F)F)cc2N)N1 [Compound 176, (6R)-17-amino-12,12-bis(trideuteriomethyl)-6,15-bis(trifluoromethyl)-19-oxa-3,4,13,18-tetrazatricyclo[12.3.1.12,5]nonadeca-1(18),2,4,14,16-pentaen-6-ol]

pEC50 [1]: > 6.30
Structure (SMILES): Nc1cc(C(F)(F)F)c2nc1-c1nnc(o1)[C@@](O)(C(F)(F)F)CCCCCC1(CCCC1)N2 [Compound 177, (6R)-17-amino-6,15-bis(trifluoromethyl)spiro[19-oxa-3,4,13,18-tetrazatricyclo[12.3.1.12,5]nonadeca-1(18),2,4,14,16-pentaene-12,1′-cyclopentane]-6-ol]

pEC50 [1]: > 6.30
Structure (SMILES): CC1(C)CNc2nc(c(N)cc2C(F)(F)F)C2=NN=C(O2)[C@@](O)(C(F)(F)F)CCCO1 [Compound 186, (6R)-17-amino-11,11-dimethyl-6,15-bis(trifluoromethyl)-10,19-dioxa-3,4,13,18-tetrazatricyclo[12.3.1.12,5]nonadeca-1(17),2,4,14(18),15-pentaen-6-ol]

pEC50 [1]: > 6.30
Structure (SMILES): CC1(C)CCC[C@@H](O)C[C@](O)(C(F)(F)F)C2=NN=C(O2)c2nc(c(C(F)(F)F)cc2N)N1 [Compound 187, (6R,8R)-17-amino-12,12-dimethyl-6,15-bis(trifluoromethyl)-19-oxa-3,4,13,18-tetrazatricyclo[12.3.1.12,5]nonadeca-1(18),2,4,14,16-pentaene-6,8-diol]

pEC50 [1]: > 6.30
Structure (SMILES): CC1(C)CCC[C@H](O)C[C@](O)(C(F)(F)F)C2=NN=C(O2)c2nc(c(C(F)(F)F)cc2N)N1 [Compound 188, (6R,8S)-17-amino-12,12-dimethyl-6,15-bis(trifluoromethyl)-19-oxa-3,4,13,18-tetrazatricyclo[12.3.1.12,5]nonadeca-1(18),2,4,14,16-pentaene-6,8-diol]

pEC50 [1]: > 6.30
Structure (SMILES): Nc1cc(C(F)(F)F)c2nc1-c1nnc(o1)[C@@](O)(C(F)(F)F)CCCCCC1(CCCCC1)N2 [Compound 193, (6R)-17-amino-6,15-bis(trifluoromethyl)spiro[19-oxa-3,4,13,18-tetrazatricyclo[12.3.1.12,5]nonadeca-1(18),2,4,14,16-pentaene-12,1′-cyclohexane]-6-ol]

pEC50 [1]: > 6.30
Structure (SMILES): Nc1cc(C(F)(F)F)c2nc1-c1nnc(o1)[C@@](O)(C(F)(F)F)CCCCCC1(CCOCC1)N2 [Compound 205, (6R)-17-amino-6,15-bis(trifluoromethyl)spiro[19-oxa-3,4,13,18-tetrazatricyclo[12.3.1.12,5]nonadeca-1(18),2,4,14,16-pentaene-12,4′-tetrahydropyran]-6-ol]
